# Laboratory results published in US7144706B2, “Methods of modulating localization and physiological function of IP3 receptors” (Duke University, priority 2002, dated 2006).
# Entries after “also recorded” stand apart in the source; their conditions may differ. Where no end group is shown, it is not given here.
# What was measured:
# IP3R = test: [3H]IP3 binding assay and Scatchard analysis, cardiac muscle microsomes; design: species or system mouse; settings: for Kd: n=5
# Description: IP3 Binding Experiments. Cardiac membranes were prepared and labeled with increasing concentrations (5–40 nM) of [^3H] IP3 (Amersham) essentially as described (Perez et al, J. Biol. Chem. 272:23961 1997)). Assays were performed in triplicate, and at each IP3 concentration, non-specific binding was assessed in the presence of 1 μM unlabeled IP3 (ICN).
# AnkB+/− and +/+ mice = system: AnkB+/− and +/+ mice
# Excerpt: Sudden cardiac death in humans with the E1425G mutation occurred secondary to physical exertion and emotional stress (FIG. 28)3. An attempt was made to mimic these circumstances in mice with exercise followed by injection with epinephrine.
# [1] = system: wildtype and ankyrin-B (+/−) mice; test: Heart rate by ECG radiotelemetry in conscious mice after drug injection; format: in vivo, mouse; settings: for heart rate response to endothelin-1: 300 ng/kg
# Description: (§1) EKG recordings. EKG recordings were obtained using a radiotelemetry apparatus (DSI). Transmitters were implanted and the mice recovered for 5 days prior to recordings. EKG traces were analyzed using Data Quest analysis software 2.1 (DSI). P wave duration, PR interval, RR interval, QRS interval and QT interval were all calculated according to established methods. The rate corrected QT interval (QTc) was calculated from the relationship QTc=QT/(RR)^1/2 Following a 15-hour fast, blood glucose levels were measured (OneTouch Ultra; Lifescan) before and up to 120 min after an intraperitoneal injection of either PBS, glucose (2 g/kg) or insulin (5 units/kg; Eli Lilly) (Ludwig et al, J. Clin. Invest. 107:379–386 (2001)).
# To test ankyrin-B heterozygous mice for potential defects in Gαq signaling, ECG radiotransmitter implants were implanted in the abdomen of ankyrin-B (+/−) mice as well as wildtype littermate controls. These probes allow the recording of real time ECG and thus heart rate recordings in conscious, non-anethestized mice. 24 hour recordings of wildtype mice compared to heterozygote animals show overall bradycardia in the heterozygote (FIG. 9).
# [2] = system: adult AnkB+/− and control ventricular cardiomyocytes; test: Action potential recordings in isolated adult ventricular cardiomyocytes with isoproterenol; format: cell-based, mouse; settings: for extrasystoles in action potentials after acute isoproterenol: isoproterenol (1 μM); for myocytes with DADs and EADs: isoproterenol
# Description: Patch clamp methods. AnkB+/− and +/+ animals (1–3 months of age) were sacrificed by IP injection of pentobarbital sodium (100 mg/kg). Single myocytes were isolated (Santana et al, J. Physiol. 503:21 (1997)). Axopatch-200A or -200B amplifier (Axon Instruments) was used to measure membrane currents (Santana et al, J. Physiol. 503:21(1997), Santana et al, Science 279:1027 (1998)). Patch pipette (1–3 MOhm) solution (mM): CsCl (130); NaCl (10); MgATP (5); Hepes (10), MgCl2 (1) PH 7.2 (with CsOH). Superfusion solution 1: (mM) NaCl (140), KCl (5) MgCl2 (0.5), CaCl2 (1.8), NaH2PO4 (0.33), glucose (5.5) and HEPES (5); pH 7.4 at 35–37° C. Solution 2 was same as solution 1 but with CsCl substituted for KCl. After conversion to whole cell, voltage clamp in solution (1), solution (2) was used to measure ICa. Test depolarizations followed four 50 ms depolarizations to 0 mV at 1 Hz. A 500 ms ramp-depolarization from […] to 40 mV was followed by a 50 ms period at 40 mV before test depolarizations.
# AP recordings. Myocytes were superfused with Solution 1. β adrenergic stimulation of cells produced by the addition of 1 μM isoproterenol to solution 1. Pipette filling solution as above, except KCl was substituted for CsCl (pH 7.2 with KOH). Axopatch 200A was used in current clamp mode to record AP. Current injections triggered AP at constant rate (1 Hz, 5 Hz). All experiments were performed at 37° C.
# Na/K ATPase = test: [3H]ouabain binding to adult cardiac microsomes; design: species or system mouse
# Excerpt: Na/K ATPase, Na/Ca exchanger (NCX) and IP3R are candidate ankyrin-binding proteins based on biochemical data (Bennett et al, Physiol. Rev. 81:1353 (2001)) that are localized at T-tubules (Frank et al, in The Myocardium (ed. Langer, G A) 1–32 (Academic Press, San Diego, Calif., 1997)). Ankyrin-B co-immunoprecipitates with NCX1, α1 and α2 ATPase, and IP3R from extracts of heart tissue (FIG. 30B), but not with other cardiomyocyte proteins (including DHPR, SERCA2, and calsequestrin). Levels of IP3R (pan IP3R), α1 and α2 Na/K ATPase subunits, and NCX in isolated adult cardiomyocytes are reduced by 15–33% in AnkB+/− cardiomyocytes by immunoblots (FIG. 30C). Measurements of binding of [^3H] […] In contrast, by quantitative western blot analysis, protein levels of ER/SR components (SERCA2, calreticulin, calsequestrin), K+ channels or associated subunits (KCNQ1/KvLQT1, ERG1, MinK/IsK, Kir2.1/IRK1, Kir2.3/IRK3), RyR2, plasma membrane Ca^+2 channels (DHPR, PMCA2), and structural proteins (α-actinin, dystrophin) are unaffected (FIG. 30C).
# [3] = system: (+/+) and AnkB (+/−) mice; test: Insulin-tolerance test, blood glucose; format: in vivo, mouse; settings: 5 units/kg intraperitoneal, 120 min
# Description: as §1
molecule,measurement,setting,value
"O=P(O)(O)O[C@@H]1[C@H](O)[C@H](O)[C@@H](OP(=O)(O)O)[C@H](OP(=O)(O)O)[C@H]1O [IP3, inositol 1,4,5-triphosphate]","Bmax, IP3 binding capacity",IP3R; (+/+) cardiac muscle,0.083 pmol/mg
same,Kd,IP3R; (+/+) cardiac muscle,24 nM
same,"Bmax, IP3 binding capacity",IP3R; AnkB (+/−) cardiac muscle,0.056 pmol/mg
same,Kd,IP3R; AnkB (+/−) cardiac muscle,25 nM
same,reduction in IP3 binding capacity,IP3R; AnkB (+/−) vs wildtype heart,33%
same,"affinity for ligand, AnkB+/− vs +/+",IP3R; adult cardiac microsomes,unchanged
CNC[C@H](O)c1ccc(O)c(O)c1 [epinephrine],mice that became unresponsive or died,AnkB+/− and +/+ mice; +/+ mice,0/6
same,mice that died following exercise combined with epinephrine,AnkB+/− and +/+ mice; AnkB+/− mice,8/14
same,time to polymorphic ventricular arrhythmias after EPI,"AnkB+/− and +/+ mice; AnkB+/− mouse, exercise and epinephrine",~17 min
CC(C)NCC(O)c1ccc(O)c(O)c1 (stereo not drawn) [isoproterenol],heart rate response to isoproterenol,"[1]; wildtype and ankyrin-B (+/−) mice, 50 mg/kg",responsed equally
same,extrasystoles in action potentials after acute isoproterenol,[2]; AnkB+/− cardiomyocytes,developed spontaneous extrasystoles at both 1 and 5 Hz
same,myocytes with DADs and EADs,"[2]; AnkB+/− myocytes, 1 and 5 Hz",36%
same,extrasystoles in action potentials after acute isoproterenol,[2]; control cells,did not
same,myocytes with DADs and EADs,[2]; control myocytes,no control myocytes
C[C@@H]1O[C@@H](O[C@H]2C[C@@H](O)[C@]3(CO)[C@H]4[C@H](O)C[C@]5(C)[C@@H](C6=CC(=O)OC6)CC[C@]5(O)[C@@H]4CC[C@]3(O)C2)[C@H](O)[C@H](O)[C@H]1O [ouabain],reduction in [3H]ouabain binding capacity,Na/K ATPase; AnkB+/− heart vs +/+,16%
same,"affinity for ligand, AnkB+/− vs +/+",Na/K ATPase; adult cardiac microsomes,unchanged
CNC[C@H](O)c1cccc(O)c1 [phenylephrine],heart rate response to phenylephrine,"[1]; ankyrin-B (+/−) mice, 3 mg/kg",significant decreased heart rate sensitivity; also recorded: does not reach the same minimum levels as the wildtype
same,maximal decrease in heart rate after phenylephrine during beta blockade,"[1]; ankyrin-B heterozygous mice, propanolol injected prior to phenylephrine",~50 % of the wildtype response
same,heart rate response to phenylephrine,"[1]; wildtype mice, 3 mg/kg intraperitoneal",rapid decrease in heart rate
CC(C)NCC(O)COc1cccc2ccccc12 (stereo not drawn) [propanolol],heart rate response to propanolol,[1]; wildtype and ankyrin-B heterozygote mice,typical decreases in heart rate which were not significantly different
"endothelin-1 (CSCSSLMDKECVYFCHLDIIW; ends and bridges not checked; cysteine pairing not given here; UniProt P05305 53-73, looked up) [signals via a Gαq-coupled receptor]",heart rate response to endothelin-1,[1]; ankyrin-B (+/−) mice,significantly reduced; also recorded: does not reach the same levels as the wildtype
same,heart rate response to endothelin-1,[1]; wildtype animals,significant decrease in heart rate
insulin,blood glucose after insulin injection,[3]; (+/+) mice,decline following the insulin injection and return to near normal levels by the end of the 120 min period
same,blood glucose after insulin injection,[3]; AnkB (+/−) mice,significant reduction in blood glucose levels
